Assay results: patent US9978954B2, “Benzobis (thiadiazole) derivative, ink comprising same, and organic electronic device comprising same” (UBE INDUSTRIES, LTD., priority 2013, dated 2018)

Assay: Evaluation of solubility in organic solvents (visual observation of complete dissolution)
Format: physicochemical
Procedure: [Evaluation of Solubility]
The evaluation of the solubility of the synthesized compound was conducted by the following method.
About 2-3 mg of the compound was precisely weighed, and each solvent was added to the compound such that a predetermined concentration of the solute (0.5 wt %, 0.3 wt %, 0.2 wt %, 0.1 wt %, 0.05 wt %, or 0.03 wt %) was reached. The resultant mixture was stirred for 30 minutes at a predetermined temperature, and then it was evaluated by visual appearance observation whether or not the solute (synthesized compound) was completely dissolved in the solvent, which was the result of the evaluation of the solubility. As the solvent, chloroform (boiling point 61° C.), toluene (boiling point 111° C.), xylene (boiling point 144° C.), mesitylene (boiling point 165° C.), chlorobenzene (boiling point 130° C.), para-chlorotoluene (boiling point 162° C.), and ortho-dichlorobenzene (boiling point 181° C.) were used.

[1] = chloroform, 25° C. (room temperature)

## CCCCCCCCCCCCCCCCCCc1cc(-c2ccc(-c3c4c(c(-c5ccc(-c6ccc(C#N)c(CCCCCCCCCCCCCCCCCC)c6)s5)c5nsnc35)N=S=N4)s2)ccc1C#N [Compound (C20), 4,8-bis[5-(4-cyano-3-octadecylphenyl)thiophene-2-yl]benzo[1,2-c:4,5-c′]bis[1,2,5]thiadiazole]
1-methylnaphthalene, 100° C.
  solubility (solute concentration completely dissolved): ≥ 0.3 wt %
chlorobenzene, 100° C.
  solubility (solute concentration completely dissolved): ≥ 0.3 wt %
chloroform, 60° C.
  solubility (solute concentration completely dissolved): ≥ 0.1 wt %
ortho-dichlorobenzene, 80° C.
  solubility (solute concentration completely dissolved): ≥ 0.3 wt %

## FC(F)(F)Sc1ccc(-c2ccc(-c3c4c(c(-c5ccc(-c6ccc(SC(F)(F)F)cc6)s5)c5nsnc35)N=S=N4)s2)cc1 [Compound (RC5), 4,8-bis[5-(4-((trifluoromethyl)thio)phenyl)thiophene-2-yl]benzo[1,2-c:4,5-c′]bis[1,2,5]thiadiazole, reference compound]
chlorobenzene, 100° C.
  solubility (solute concentration completely dissolved): < 0.03 wt %
mesitylene, 100° C.
  solubility (solute concentration completely dissolved): < 0.03 wt %
mesitylene, 130° C.
  solubility (solute concentration completely dissolved): < 0.3 wt %
ortho-dichlorobenzene, 100° C.
  solubility (solute concentration completely dissolved): < 0.03 wt %
toluene, 100° C.
  solubility (solute concentration completely dissolved): < 0.03 wt %

## CCCCCCc1cc(-c2ccc(-c3c4c(c(-c5ccc(-c6cc(CCCCCC)c(C#N)c(CCCCCC)c6)s5)c5nsnc35)N=S=N4)s2)cc(CCCCCC)c1C#N [Compound (C22), 4,8-bis[5-(4-cyano-3,5-dihexylphenyl)thiophene-2-yl]benzo[1,2-c:4,5-c′]bis[1,2,5]thiadiazole]
1-methylnaphthalene, 25° C. (room temperature)
  solubility (solute concentration completely dissolved): ≥ 0.1 wt %
[1]
  solubility (solute concentration completely dissolved): ≥ 0.1 wt %
ortho-dichlorobenzene, 25° C.
  solubility (solute concentration completely dissolved): ≥ 0.1 wt %
toluene, 25° C.
  solubility (solute concentration completely dissolved): ≥ 0.3 wt %

## CCCCCCCCCc1cc(-c2ccc(-c3c4c(c(-c5ccc(-c6ccc(C#N)c(CCCCCCCCC)c6)s5)c5nsnc35)N=S=N4)s2)ccc1C#N [Compound (C15), 4,8-bis[5-(4-cyano-3-nonylphenyl)thiophene-2-yl]benzo[1,2-c:4,5-c′]bis[1,2,5]thiadiazole]
chlorobenzene, 60° C.
  solubility (solute concentration completely dissolved): ≥ 0.3 wt %
[1]
  solubility (solute concentration completely dissolved): ≥ 0.1 wt %
chloroform, 60° C.
  solubility (solute concentration completely dissolved): ≥ 0.2 wt %
ortho-dichlorobenzene, 60° C.
  solubility (solute concentration completely dissolved): ≥ 0.3 wt %
para-chlorotoluene, 80° C.
  solubility (solute concentration completely dissolved): ≥ 0.3 wt %

## FC(F)(F)Oc1ccc(-c2ccc(-c3c4c(c(-c5ccc(-c6ccc(OC(F)(F)F)cc6)s5)c5nsnc35)N=S=N4)s2)cc1 [Compound (RC1), 4,8-bis[5-(4-(trifluoromethoxy)phenyl)thiophene-2-yl]benzo[1,2-c:4,5-c′]bis[1,2,5]thiadiazole, reference compound]
chlorobenzene, 100° C.
  solubility (solute concentration completely dissolved): < 0.03 wt %
mesitylene, 100° C.
  solubility (solute concentration completely dissolved): < 0.03 wt %
ortho-dichlorobenzene, 100° C.
  solubility (solute concentration completely dissolved): < 0.03 wt %
toluene, 100° C.
  solubility (solute concentration completely dissolved): < 0.03 wt %

## CCCCCCCc1cc(-c2ccc(-c3c4c(c(-c5ccc(-c6ccc(C#N)c(CCCCCCC)c6)s5)c5nsnc35)N=S=N4)s2)ccc1C#N [Compound (C13), 4,8-bis[5-(4-cyano-3-heptylphenyl)thiophene-2-yl]benzo[1,2-c:4,5-c′]bis[1,2,5]thiadiazole]
chlorobenzene, 80° C.
  solubility (solute concentration completely dissolved): ≥ 0.3 wt %
[1]
  solubility (solute concentration completely dissolved): ≥ 0.2 wt %
ortho-dichlorobenzene, 80° C.
  solubility (solute concentration completely dissolved): ≥ 0.3 wt %
para-chlorotoluene, 80° C.
  solubility (solute concentration completely dissolved): ≥ 0.3 wt %

## FC(F)(F)c1ccccc1-c1ccc(-c2c3c(c(-c4ccc(-c5ccccc5C(F)(F)F)s4)c4nsnc24)N=S=N3)s1 [Compound (RR2), 4,8-bis[5-(2-(trifluoromethyl)phenyl)thiophene-2-yl]benzo[1,2-c:4,5-c′]bis[1,2,5]thiadiazole, reference compound]
chlorobenzene, 25° C.
  solubility (solute concentration completely dissolved): ≥ 0.1 wt %
mesitylene, 25° C.
  solubility (solute concentration completely dissolved): ≥ 0.1 wt %
ortho-dichlorobenzene, 25° C.
  solubility (solute concentration completely dissolved): ≥ 0.1 wt %
toluene, 25° C.
  solubility (solute concentration completely dissolved): ≥ 0.1 wt %

## CCCC(C)CCc1cc(-c2ccc(-c3c4c(c(-c5ccc(-c6ccc(C#N)c(CCC(C)CCC)c6)s5)c5nsnc35)N=S=N4)s2)ccc1C#N (stereo not drawn) [Compound (C21), 4,8-bis[5-(4-cyano-3-(3-methylhexyl)phenyl)thiophene-2-yl]benzo[1,2-c:4,5-c′]bis[1,2,5]thiadiazole]
1-methylnaphthalene, 80° C.
  solubility (solute concentration completely dissolved): ≥ 0.3 wt %
chlorobenzene, 80° C.
  solubility (solute concentration completely dissolved): ≥ 0.3 wt %
chloroform, 60° C.
  solubility (solute concentration completely dissolved): ≥ 0.2 wt %
ortho-dichlorobenzene, 80° C.
  solubility (solute concentration completely dissolved): ≥ 0.3 wt %

## CCCCCCCCCCC(F)(F)c1cccc(-c2ccc(-c3c4c(c(-c5ccc(-c6cccc(C(F)(F)CCCCCCCCCC)c6)s5)c5nsnc35)N=S=N4)s2)c1 [Compound (C4), 4,8-bis[5-(3-(1,1-difluoroundecyl)phenyl)thiophene-2-yl]benzo[1,2-c:4,5-c′]bis[1,2,5]thiadiazole]
chlorobenzene, 25° C.
  solubility (solute concentration completely dissolved): ≥ 0.03 wt %
mesitylene, 25° C.
  solubility (solute concentration completely dissolved): ≥ 0.03 wt %
mesitylene, 60° C.
  solubility (solute concentration completely dissolved): ≥ 0.1 wt %
mesitylene, 100° C.
  solubility (solute concentration completely dissolved): ≥ 0.5 wt %
ortho-dichlorobenzene, 25° C.
  solubility (solute concentration completely dissolved): ≥ 0.03 wt %
toluene, 25° C.
  solubility (solute concentration completely dissolved): ≥ 0.03 wt %
toluene, 60° C.
  solubility (solute concentration completely dissolved): ≥ 0.1 wt %
toluene, 100° C.
  solubility (solute concentration completely dissolved): ≥ 0.5 wt %

## CCCCCCCCCCCCc1ccc(-c2ccc(-c3c4c(c(-c5ccc(-c6ccc(CCCCCCCCCCCC)c(C(F)(F)F)c6)s5)c5nsnc35)N=S=N4)s2)cc1C(F)(F)F [Compound (C28), 4,8-bis[5-(4-dodecyl-3-(trifluoromethyl)phenyl)thiophene-2-yl]benzo[1,2-c:4,5-c′]bis[1,2,5]thiadiazole]
1-methylnaphthalene, 100° C.
  solubility (solute concentration completely dissolved): ≥ 0.3 wt %
chloroform, 80° C.
  solubility (solute concentration completely dissolved): ≥ 0.1 wt %
mesitylene, 100° C.
  solubility (solute concentration completely dissolved): ≥ 0.3 wt %
ortho-dichlorobenzene, 80° C.
  solubility (solute concentration completely dissolved): ≥ 0.3 wt %
toluene, 100° C.
  solubility (solute concentration completely dissolved): ≥ 0.3 wt %

## CCCCCCCCc1cc(-c2ccc(-c3c4c(c(-c5ccc(-c6ccc(C#N)c(CCCCCCCC)c6)s5)c5nsnc35)N=S=N4)s2)ccc1C#N [Compound (C14), 4,8-bis[5-(4-cyano-3-octylphenyl)thiophene-2-yl]benzo[1,2-c:4,5-c′]bis[1,2,5]thiadiazole]
chlorobenzene, 80° C.
  solubility (solute concentration completely dissolved): ≥ 0.3 wt %
[1]
  solubility (solute concentration completely dissolved): ≥ 0.1 wt %
chloroform, 60° C.
  solubility (solute concentration completely dissolved): ≥ 0.2 wt %
ortho-dichlorobenzene, 60° C.
  solubility (solute concentration completely dissolved): ≥ 0.3 wt %
para-chlorotoluene, 100° C.
  solubility (solute concentration completely dissolved): ≥ 0.3 wt %

## FC(F)(F)c1ccc(-c2ccc(-c3c4c(c(-c5ccc(-c6ccc(C(F)(F)F)cc6)s5)c5nsnc35)N=S=N4)s2)cc1 [Compound (RC2), 4,8-bis[5-(4-(trifluoromethyl)phenyl)thiophene-2-yl]benzo[1,2-c:4,5-c′]bis[1,2,5]thiadiazole, reference compound]
chlorobenzene, 100° C.
  solubility (solute concentration completely dissolved): < 0.03 wt %
mesitylene, 100° C.
  solubility (solute concentration completely dissolved): < 0.03 wt %
mesitylene, 130° C.
  solubility (solute concentration completely dissolved): < 0.3 wt %
ortho-dichlorobenzene, 100° C.
  solubility (solute concentration completely dissolved): < 0.03 wt %
toluene, 100° C.
  solubility (solute concentration completely dissolved): < 0.03 wt %

## CCCCCCCCCCC(F)(F)c1ccc(-c2ccc(-c3c4c(c(-c5ccc(-c6ccc(C(F)(F)CCCCCCCCCC)cc6)s5)c5nsnc35)N=S=N4)s2)cc1 [Compound (RC3), 4,8-bis[5-(4-(1,1-difluoroundecyl)phenyl)thiophene-2-yl]benzo[1,2-c:4,5-c′]bis[1,2,5]thiadiazole, reference compound]
chlorobenzene, 60° C.
  solubility (solute concentration completely dissolved): < 0.03 wt %
mesitylene, 60° C.
  solubility (solute concentration completely dissolved): < 0.03 wt %
toluene, 60° C.
  solubility (solute concentration completely dissolved): < 0.03 wt %

## CCCCCCc1ccc(-c2ccc(-c3c4c(c(-c5ccc(-c6ccc(CCCCCC)c(C#N)c6)s5)c5nsnc35)N=S=N4)s2)cc1C#N [Compound (C7), 4,8-bis[5-(3-cyano-4-hexylphenyl)thiophene-2-yl]benzo[1,2-c:4,5-c′]bis[1,2,5]thiadiazole]
chlorobenzene, 25° C.
  solubility (solute concentration completely dissolved): ≥ 0.1 wt %
chlorobenzene, 60° C.
  solubility (solute concentration completely dissolved): ≥ 0.5 wt %
mesitylene, 60° C.
  solubility (solute concentration completely dissolved): ≥ 0.1 wt %
mesitylene, 80° C.
  solubility (solute concentration completely dissolved): ≥ 0.5 wt %
toluene, 60° C.
  solubility (solute concentration completely dissolved): ≥ 0.1 wt %
toluene, 100° C.
  solubility (solute concentration completely dissolved): ≥ 0.5 wt %
